In patent US6372770B1, “Benzoxazoles” (Euro-Celtique, S.A., priority 1994, dated 2002):
Where two headings read alike, the source gives them in different places.

How the values were obtained:
PDE III = target: T1, PDE III (Homo sapiens, UniProt Q14432); test: Type III PDE inhibition, hydrolysis of [3H]-cyclic AMP; assay type: biochemical; settings: Type III PDE isolated from human platelets; 0.2 μM cyclic AMP
T1 construct: Fractions containing PDE III activity are pooled and dialyzed overnight; from tissue; host or cells: human platelets
T1 sequence (Q14432 whole entry): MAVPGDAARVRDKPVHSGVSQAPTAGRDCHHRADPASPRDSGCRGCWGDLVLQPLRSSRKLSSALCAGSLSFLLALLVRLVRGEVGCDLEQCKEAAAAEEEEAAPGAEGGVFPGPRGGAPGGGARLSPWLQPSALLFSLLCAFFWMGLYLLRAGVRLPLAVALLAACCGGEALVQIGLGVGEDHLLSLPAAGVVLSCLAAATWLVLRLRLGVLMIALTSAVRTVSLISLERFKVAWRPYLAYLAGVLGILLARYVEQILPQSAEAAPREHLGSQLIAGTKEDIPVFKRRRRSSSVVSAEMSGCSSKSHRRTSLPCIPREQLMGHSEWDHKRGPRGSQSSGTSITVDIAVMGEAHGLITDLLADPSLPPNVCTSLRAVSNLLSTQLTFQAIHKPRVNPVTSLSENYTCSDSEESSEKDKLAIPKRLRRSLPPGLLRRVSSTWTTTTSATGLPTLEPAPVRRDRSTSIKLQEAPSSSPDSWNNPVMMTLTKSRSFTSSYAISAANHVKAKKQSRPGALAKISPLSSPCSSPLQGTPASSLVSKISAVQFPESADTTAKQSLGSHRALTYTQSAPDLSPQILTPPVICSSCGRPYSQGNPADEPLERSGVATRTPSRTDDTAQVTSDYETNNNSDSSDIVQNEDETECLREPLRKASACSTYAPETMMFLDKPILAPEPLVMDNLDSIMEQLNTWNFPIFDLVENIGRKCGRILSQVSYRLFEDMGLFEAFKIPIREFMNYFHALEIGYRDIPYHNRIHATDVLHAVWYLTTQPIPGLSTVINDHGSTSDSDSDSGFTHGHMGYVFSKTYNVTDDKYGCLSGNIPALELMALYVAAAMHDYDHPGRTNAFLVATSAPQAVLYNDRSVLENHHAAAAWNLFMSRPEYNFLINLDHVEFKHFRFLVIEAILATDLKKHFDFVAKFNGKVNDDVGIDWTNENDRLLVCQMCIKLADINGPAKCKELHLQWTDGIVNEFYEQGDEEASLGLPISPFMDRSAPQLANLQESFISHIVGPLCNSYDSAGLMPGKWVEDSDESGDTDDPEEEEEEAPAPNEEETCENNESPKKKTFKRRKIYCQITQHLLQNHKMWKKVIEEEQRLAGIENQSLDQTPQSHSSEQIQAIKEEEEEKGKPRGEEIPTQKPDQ
Method: The Type III PDE is isolated from human platelets using a procedure similar to that previously described by Washer, R. E. et al., Biochem. Pharmacol., 35:787, 1986. Briefly, 1-2 units of platelets are suspended in an equal volume of buffer (20 mM Tris-HCl, pH 7.5, containing 2 mM magnesium acetate, 1 mM dithiothreitol, and 5 mM Na2EDTA). The proteinase inhibitor phenylmethyl-sulfonyl fluoride (PMSF) is also included in this buffer at a final concentration of 200 μM. The suspension is homogenized using a polytron and the homogenate centrifuged at 100,000×g for 60 minutes. This and all subsequent procedures are performed at 0-4° C. The supernatant is then filtered through four layers of gauze and applied to a DEAE-Trisacryl M column, previously equilibrated with buffer B (20 mM Tris-HCl, pH 7.5, containing 1 mM magnesium acetate, 1 mM dithiothreitol and 200 μM PMSF). After application of the sample, the column is washed with several bed volumes of buffer B, after which the different forms of PDE are eluted from the column using two successive linear NaCl gradients (0.05-0.15 M, 300 ml total; 0.15-0.40 M, 200 ml total). Five ml fractions are collected and assayed for cyclic AMP and cyclic GMP PDE activity. Fractions containing PDE III activity are pooled and dialyzed overnight against 4 L of buffer B. The dialyzed PDE III is then concentrated to 10% of the original volume, diluted to 50% with ethylene glycol monoethyl ether and stored at −20° C. PDE III can typically be retained for up to four weeks with little or no loss of activity.
(§1) Enzyme activity is assessed by measuring the hydrolysis of [^3H]-cyclic AMP, as described by Thompson, W. J. et al., Adv. Cyclic Nucleotide Res. 10:69, 1979. The cyclic AMP concentration used in this assay is 0.2 μM, which approximates to the Km value. Protein concentration is adjusted to ensure that no more than 15% of the available substrate is hydrolyzed during the incubation period.
(§2) All test compounds are dissolved in dimethyl sulfoxide (final concentration of 2.5%). This concentration of dimethyl sulfoxide inhibits enzyme activity by approximately 10%.

PDE IV [1] = system: T2, PDE IV; test: Type IV PDE inhibition, hydrolysis of [3H]-cyclic AMP; assay type: biochemical, bovine
T2 construct: PDE IV IC50; other: Type IV PDE isolated from bovine tracheal smooth muscle; rolipram run in the
Text: The PDE IV inhibitory compounds of the present invention may be examined for their PDE IV inhibitory effects via the techniques set forth in the following examples, wherein the ability of the compounds to inhibit PDE IV isolated from bovine tracheal smooth muscle is set forth.
The Type IV PDE is isolated from bovine tracheal smooth muscle using a procedure similar to that previously described by Silver, P. J. et al., Eur. J. Pharmacol. 150:85,1988.(1). Briefly, smooth muscle from bovine trachea is minced and homogenized using a polytron in 10 volumes of an extraction buffer containing 10 mM Tris-acetate (pH 7.5), 2 mM magnesium chloride, 1 mM dithiothreitol and 2,000 units/ml of aprotinin. This and all subsequent procedures are performed at 0-4° C. The homogenate is sonicated and then centrifuged at 48,000×g for 30 minutes. The resulting supernatant is applied to a DEAE Trisacryl M column previously equilibrated with sodium acetate and dithiothreitol. After applications of the sample, the column is washed with sodium acetate/dithiothreitol, after whlich the different forms of PDE are eluted from the column using a linear Tris-HCl/NaCl gradient. Fractions containing Type IV PDE are collected, dialyzed and concentrated to 14% of the original volume. The concentrated fractions are diluted to 50% with ethylene glycol and stored at −20° C.
as §1, with “approximates” for “approximates to”
as §2

PDE IV [2] = settings: cited from earlier work
[3] = Type IV PDE isolated from bovine tracheal smooth muscle, 0.2 μM cyclic AMP, read-out: PDE IV IC50

With `COc1ccc(Cc2nc3cc(Cl)cc(CC=O)c3o2)cc1OC1CCCC1` [Example 25, 2-(3-Cyclopentyloxy-4-methoxybenzyl)-5-chlorobenzoxazole-7-ethanal] the melting point was 66 to 68 °C, the IC50 (PDE III) was 118 µM and the IC50 (PDE IV [1]; [3]) was 0.65 µM.

For `CC(=O)Oc1c(C(C)(C)C)cc(CCc2nc3cc(Cl)cc(CCc4ccccn4)c3o2)cc1C(C)(C)C` [Example 58(b), 2-[2-(4-acetoxy-3,5-di-t-butyl-phenyl)ethyl]-5-chloro-7-[2-(2-pyridyl)ethyl]-benzoxazole], the melting point was 134 to 135 °C.

`Clc1cc(C#Cc2nccs2)c2oc(Cc3ccccc3Cl)nc2c1` [Example 59(a), 5-chloro-2-(2-chlorobenzyl)-7-[2-(2-thiazolyl)ethynyl]-benzoxazole] gave a melting point of 149 to 151 °C.

Molecule `COc1ccc(Cc2nc3cccc(CCCO)c3o2)cc1OC` [Example 61, 2-(3,4-dimethoxybenzyl)-7-(3-hydroxy-propyl)-benzoxazole] has a melting point of 95 to 97 °C.

With `COc1ccc(Cc2nc3cc(Cl)cc(CC=NO)c3o2)cc1OC1CCCC1` [Example 26, 2-(3-Cyclopentyloxy-4-methoxybenzyl)-5-chlorobenzoxazole-7-ethanal Oxime] the melting point was 149 to 151 °C, the IC50 (PDE III) was 11.4 µM and the IC50 (PDE IV [1]; [3]) was 0.37 µM.

`NC(=O)CCc1cc(Cl)cc2nc(Cc3ccccc3Cl)oc12` [Example 55(a), 5-Chloro-2-(2-chlorobenzyl)-benzoxazole-7-propanamide] showed a melting point of 181 to 183 °C.

With `CC(=O)CCc1cc(Cl)cc2nc(-c3ccccc3Cl)oc12` [Example 9, 4-(5-Chloro-2-(2-chlorophenyl)benzoxazol-7-yl)butan-2-one] the melting point was 109 to 110 °C, the IC50 (PDE III) was > 300 µM and the IC50 (PDE IV [1]; [3]) was 0.6 µM.

For `OCCCCCc1cc(Cl)cc2nc(Cc3ccccc3Cl)oc12` [Example 60(b), 5-chloro-2-(2-chlorobenzyl)-7-(5-hydroxypentyl)-benzoxazole], the melting point was 72 to 79 °C.

In the case of `COc1ccc(CNc2cccc3nc(-c4cccc(Cl)c4)oc23)cc1OC1CCCC1` [Example 36, 2-(3-Chlorophenyl)-7-(3-cyclopentyloxy-4-methoxy-benzylamino)Benzoxazole], the IC50 (PDE III) is reported as > 300 µM and the IC50 (PDE IV [1]; [3]) is reported as 15.8 µM.

In the case of `COc1ccc(Cc2nc3c(OC(C)=O)cccc3o2)cc1OC1CCCC1` [Example 8, 4-Acetoxy-2-(3-cyclopentyloxy-4-methoxybenzyl)-benzoxazole], the IC50 (PDE III) is reported as 158 µM and the IC50 (PDE IV [1]; [3]) is reported as 0.75 µM.

Work on “2-(3-Cyclopentyloxy-4-methoxybenzyl)-5-chloro-7-(2-hydroxyethyl)benzoxazole Carbamate [Example 28]” yielded an IC50 (PDE III) of 36.8 µM and an IC50 (PDE IV [1]; [3]) of 0.7 µM.

In the case of `Cn1c(=O)c2[nH]cnc2n(C)c1=O` [theophylline], the IC50 (PDE IV [2]; read-out: concentration giving 50% inhibition of PDE IV, stated in the description without a test) is given as ~350 µM.

With `CC(C)(C)c1cc(Cc2nc3ccccc3o2)cc(C(C)(C)C)c1O` [Example 45, 2-[4-Hydroxy-3,5-di-t-butyl-benzyl]Benzoxazole] the IC50 (PDE III) was 72.4 µM and the IC50 (PDE IV [1]; [3]) was 19.5 µM.

`OCCCc1cc(Cl)cc2nc(Cc3cccc(Cl)c3)oc12` [Example 42, 3-[5-Chloro-2-(3-chlorobenzyl)benzoxazol-7-yl]propan-1-ol] gave an IC50 (PDE III) of 48.6 µM and an IC50 (PDE IV [1]; [3]) of 16 µM.

In the case of `COc1ccc(-c2nc3cc(Cl)ccc3o2)cc1OC` [Example 44, 5-Chloro-2-(3,4-dimethoxyphenyl)Benzoxazole], the IC50 (PDE III) is reported as > 300 µM and the IC50 (PDE IV [1]; [3]) is reported as 19.3 µM.

For `COc1ccc(C2CNC(=O)C2)cc1OC1CCCC1` (stereo not drawn) [Rolipram, reference compound], the IC50 (PDE IV [2]; historically considered value, read-out: PDE IV IC50, historical value) is given as 3.5 µM and the IC50 (PDE IV [1]; read-out: concentration which yields 50% inhibition of PDE IV (IC50), value of the description, rolipram run in the same assay) is given as 2.8 µM.

In the case of `CC(C)c1cc(Cc2nc3cccc(C#Cc4ccccn4)c3o2)cc(C(C)C)c1O` [Example 23], the IC50 (PDE III) is reported as 152 µM and the IC50 (PDE IV [1]; [3]) is reported as 0.26 µM.

`CC(C)c1cc(Cc2nc3c(O)cccc3o2)cc(C(C)C)c1O` [Example 20, 2-((3,5-Di-isopropyl-4-hydroxy)benzyl)-4-hydroxy-benzoxazole] gave an IC50 (PDE III) of 34.3 µM and an IC50 (PDE IV [1]; [3]) of 3.03 µM.
